Counter-ions that a name gives are not always drawn. Like-named read-outs stand apart in the source and are kept apart here.
What was measured:
Aβ1-42 = Aβ1-42 content in conditioned medium of primary cortico-hippocampal neuron cultures from Tg2576 mice (ELISA; primary and secondary dose-response screening); type: cell-based, mouse; details: for activity at 100 µM: Mus musculus, Neuron, 24 h, read-out: Ab1-42 (% of ctl); for activity at 100 µM / Ab1-42 (% of ctl): drug 100 μM; for reducing Aβ1-42: <85% of ctl
Procedure, shortened: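 Primary cortico-hippocampal neurons from embryonic Tg2576 mouse brain were seeded on poly-D-lysine-coated 96-well plates at 1.0×10^5 cells per well in serum-free Neurobasal medium with 2% B27, 0.5 mM L-glutamine and 1% penicillin-streptomycin. For primary screening, duplicate wells received 100 μM drug (1% DMSO final). Vehicle-treated cultures served as controls, and Aβ1-42 in conditioned medium was measured by commercial ELISA.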

[1] = tested on: primary cortico-hippocampal neuron cultures; test: lactate dehydrogenase (LDH) activity assay in parallel neuron cultures
Aβ1-40 = Aβ1-40 content in conditioned medium of primary cortico-hippocampal neuron cultures from Tg2576 mice (ELISA; primary and secondary dose-response screening); type: cell-based, mouse; details: for activity at 100 µM: Mus musculus, Neuron, 24 h, read-out: Ab1-40 (% of ctl); for activity at 100 µM / Ab1-40 (% of ctl): drug 100 μM; for reduced Aβ1-40: <85% of ctl
Procedure, shortened: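 Primary cortico-hippocampal neurons from embryonic Tg2576 mice were plated at 1.0×10^5 cells per well on poly-D-lysine-coated 96-well plates in Neurobasal with 2% B27, 0.5 mM L-glutamine and 1% penicillin-streptomycin. Cultures received drug in 1% DMSO, and Aβ1-40 in the conditioned medium was measured by BioSource ELISA 24 hours after treatment, relative to vehicle controls.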

[2] = tested on: primary cortico-hippocampal neuron cultures; test: MTT in primary screening
[3] = Primary Screening, table sorted by Aβ1-40
[4] = primary screening, Tg2576 neuron cultures, table sorted by Aβ1-42
[5] = primary screening, table sorted by Aβ1-42

| LDH (% of ctl) [1, 3] | LDH (% of ctl) [1, 5] | MTT (% of ctl) [2, 3] | MTT (% of ctl) [2, 5] | Structure (SMILES) | activity at 100 µM (Aβ1-42; [3]) | activity at 100 µM (Aβ1-42; [4]) | activity at 100 µM (Aβ1-40; [3]) | activity at 100 µM (Aβ1-40; [4]) | reduced Aβ1-40 (Aβ1-40; primary screening) | reducing Aβ1-42 (Aβ1-42; primary screening) | Ab1-42 (% of ctl) (Aβ1-42; [3]) | Ab1-42 (% of ctl) (Aβ1-42; [4]) | Ab1-40 (% of ctl) (Aβ1-40; [3]) | Ab1-40 (% of ctl) (Aβ1-40; [4]) |
| --- | --- | --- | --- | --- | --- | --- | --- | --- | --- | --- | --- | --- | --- | --- |
| 115.6 % of ctl | 115.6 % of ctl | 79.7 % of ctl | 79.7 % of ctl | CC(CCc1ccccc1)NC(C)C(O)c1ccc(O)cc1 (centres unmarked) [Nylidrin Hydrochloride] | 90.4% | 90.4% | 70.5% | 70.5% | reduced Aβ1-40 | – | – | – | – | – |
| 104.4 % of ctl | 104.4 % of ctl | 99.2 % of ctl | 99.2 % of ctl | CC(C)(C)NC[C@H](O)COc1nsnc1N1CCOCC1 [Timolol Maleate] | 104% | 104% | 101% | 101% | – | – | – | – | – | – |
| 129.9 % of ctl | 129.9 % of ctl | 93.4 % of ctl | 93.4 % of ctl | CCC(C)(C)C(=O)O[C@H]1C[C@@H](C)C=C2C=C[C@H](C)[C@H](CC[C@@H]3C[C@@H](O)CC(=O)O3)[C@H]21 [Simvastatin] | 122% | 122% | 28% | 28% | – | – | – | – | – | – |
| 101.8 % of ctl | 101.8 % of ctl | 102.4 % of ctl | 102.4 % of ctl | CCOC(=O)[C@H](CCc1ccccc1)N[C@@H](C)C(=O)N1Cc2ccccc2C[C@H]1C(=O)O [Quinapril Hydrochloride] | 118% | 118% | 119% | 119% | – | – | – | – | – | – |
| 100.6 % of ctl | 100.6 % of ctl | 99.5 % of ctl | 99.5 % of ctl | CCOC(=O)NNc1nncc2ccccc12 [Todralazine Hydrochloride] | 110% | 110% | 105% | 105% | – | – | – | – | – | – |
| 107.9 % of ctl | 107.9 % of ctl | 108.8 % of ctl | 108.8 % of ctl | O=C1c2ccccc2C(=O)C1c1ccccc1 [Phenindione] | 105% | 105% | 104% | 104% | – | – | – | – | – | – |
| 118.3 % of ctl | 118.3 % of ctl | 97.2 % of ctl | 97.2 % of ctl | Cn1cnc2c1c(=O)[nH]c(=O)n2C [Theobromine] | 117% | 117% | 101% | 101% | – | – | – | – | – | – |
| 107.5 % of ctl | 107.5 % of ctl | 99.2 % of ctl | 99.2 % of ctl | Cc1cccc(Nc2ccncc2S(=O)(=O)NC(=O)NC(C)C)c1 [Torsemide] | 104% | 104% | 107% | 107% | – | – | – | – | – | – |

Continued, molecule first:

| Structure (SMILES) | LDH (% of ctl) [1, 3] | LDH (% of ctl) [1, 5] | MTT (% of ctl) [2, 3] | MTT (% of ctl) [2, 5] | activity at 100 µM (Aβ1-42; [3]) | activity at 100 µM (Aβ1-42; [4]) | activity at 100 µM (Aβ1-40; [3]) | activity at 100 µM (Aβ1-40; [4]) | reduced Aβ1-40 (Aβ1-40; primary screening) | reducing Aβ1-42 (Aβ1-42; primary screening) | Ab1-42 (% of ctl) (Aβ1-42; [3]) | Ab1-42 (% of ctl) (Aβ1-42; [4]) | Ab1-40 (% of ctl) (Aβ1-40; [3]) | Ab1-40 (% of ctl) (Aβ1-40; [4]) |
| --- | --- | --- | --- | --- | --- | --- | --- | --- | --- | --- | --- | --- | --- | --- |
| COc1ccc(C2C(=O)c3ccccc3C2=O)cc1 [Anisindione] | 148.9 % of ctl | 148.9 % of ctl | 110.7 % of ctl | 110.7 % of ctl | 103% | 103% | 90.1% | 90.1% | – | – | – | – | – | – |
| NS(=O)(=O)c1cc2c(cc1Cl)N=C(CSCc1ccccc1)NS2(=O)=O [Benzthiazide] | 105.1 % of ctl | 105.1 % of ctl | 98.5 % of ctl | 98.5 % of ctl | 98.9% | 98.9% | 106% | 106% | – | – | – | – | – | – |
| O=c1oc2ccccc2c(O)c1Cc1c(O)c2ccccc2oc1=O [Dicumarol] | 93.3 % of ctl | 93.3 % of ctl | 97.0 % of ctl | 97.0 % of ctl | 54% | 54% | 51.3% | 51.3% | reduced Aβ1-40 | useful in reducing Aβ1-42 | – | – | – | – |
| CCOC(=O)C(C)(C)Oc1ccc(Cl)cc1 [Clofibrate] | 110.5 % of ctl | 110.5 % of ctl | 97.9 % of ctl | 97.9 % of ctl | 92.5% | 92.5% | 90.9% | 90.9% | – | – | – | – | – | – |
| CCCCNc1cc(C(=O)O)cc(S(N)(=O)=O)c1Oc1ccccc1 [Bumetanide] | 118.1 % of ctl | 118.1 % of ctl | 95.3 % of ctl | 95.3 % of ctl | 74.7% | 74.7% | 2.3% | 2.3% | reduced Aβ1-40 | useful in reducing Aβ1-42 | – | – | – | – |
| NS(=O)(=O)c1cc(C2(O)NC(=O)c3ccccc32)ccc1Cl (centres unmarked) [Chlorthalidone] | 645.8 % of ctl | 645.8 % of ctl | 12.1 % of ctl | 12.1 % of ctl | 96.7% | 96.7% | 108% | 108% | – | – | – | – | – | – |
| NS(=O)(=O)c1cc2c(cc1Cl)NC(C1CC3C=CC1C3)NS2(=O)=O (centres unmarked) [Cyclothiazide] | 110.3 % of ctl | 110.3 % of ctl | 97.7 % of ctl | 97.7 % of ctl | 75% | 75% | 71.1% | 71.1% | reduced Aβ1-40 | useful in reducing Aβ1-42 | – | – | – | – |
| CNCCc1ccccn1 [Betahistine Hydrochloride] | 107.3 % of ctl | 107.3 % of ctl | 107.1 % of ctl | 107.1 % of ctl | 98.9% | 98.9% | 110% | 110% | – | – | – | – | – | – |
| NS(=O)(=O)c1cc2c(cc1Cl)N=CNS2(=O)=O [Chlorothiazide] | 110.3 % of ctl | 110.3 % of ctl | 99.4 % of ctl | 99.4 % of ctl | 104% | 104% | 107% | 107% | – | – | – | – | – | – |
| CC1Cc2ccccc2N1NC(=O)c1ccc(Cl)c(S(N)(=O)=O)c1 (centres unmarked) [Indapamide] | 85.3 % of ctl | 85.3 % of ctl | 104.2 % of ctl | 104.2 % of ctl | 91.3% | 91.3% | 107% | 107% | – | – | – | – | – | – |
| CC(C)(C)NCC(O)COc1cccc2c1CC(O)C(O)C2 (centres unmarked) [Nadolol] | 106.5 % of ctl | 106.5 % of ctl | 102.8 % of ctl | 102.8 % of ctl | 113% | 113% | 94.2% | 94.2% | – | – | – | – | – | – |
| CCOC(=O)[N-]c1cn(N2CCOCC2)n[o+]1 [Molsidomine] | 1127.4 % of ctl | 1127.4 % of ctl | 15.0 % of ctl | 15.0 % of ctl | 121% | 121% | 118% | 118% | – | – | – | – | – | – |
| CCOc1nc2cccc(C(=O)OC(C)OC(=O)OC3CCCCC3)c2n1Cc1ccc(-c2ccccc2-c2nn[nH]n2)cc1 (centres unmarked) [Candesartan Cilextil] | 227.6 % of ctl | 227.6 % of ctl | 41.2 % of ctl | 41.2 % of ctl | – | – | – | – | reduced Aβ1-40 | useful in reducing Aβ1-42 | 18.1 % of ctl | 18.1 % of ctl | 9.3 % of ctl | 9.3 % of ctl |
| COc1ccc([C@@H]2Sc3ccccc3N(CCN(C)C)C(=O)[C@@H]2OC(C)=O)cc1 [Diltiazem Hydrochloride] | 96.1 % of ctl | 96.1 % of ctl | 97.8 % of ctl | 97.8 % of ctl | 98.9% | 98.9% | 108% | 108% | – | – | – | – | – | – |

— patent publication US20100029654A1, “CARDIOVASCULAR COMPOSITIONS AND USE OF THE SAME FOR THE TREATMENT OF ALZHEIMER'S DISEASE” (MOUNT SINAI SCHOOL OF MEDICINE, priority 2006, published 2010)
